{"source": "patent US7067500B2", "about": "“Betaines as adjuvants to susceptibility testing and antimicrobial therapy” (priority 1997, dated 2006)", "key": {"gram negative bacteria": {"system": "gram negative bacteria", "experiment": "Antibiotic sensitivities of BACTEC 12B/PANTA contaminants (MicroScan panels)", "type": "cell-based", "details": "ceftazidime at 8 μg/ml; contaminants of CB-18 processed specimens on 12B/PANTA", "description": "Preliminary studies designed to assess the nature of contaminants breaking through the BACTEC 12B liquid media supplemented with PANTA used discarded respiratory specimens (n=277) from Quest Diagnostics—Baltimore. (NOTE: the BACTEC 12B liquid culture system is one of the standard methods in the art for culturing mycobacteria, and PANTA is an antimicobial supplement containing polymyxin B, azlocillin, nalidixic acid, trimethoprim, and amphotericin B: this culture system is referred to herein as “12B/PANTA” (Becton Dickinson, Cockeysville, Md.)) Specimens were collected and processed with CB-18 according to the procedure above. Approximately 400–500 μl of each sediment was planted on 12B/PANTA. All contaminants were identified by morphology and/or gram stain and then differentiated as either oxidase/catalase, positive or negative. Contaminants were then speciated, and antibiotic sensitivities determined, using MicroScan® panels (Dade, West Sacramento, Calif.)."}, "[1]": {"system": "M. tuberculosis isolates ATCC 27294, 571/573-BAL, 061-TBR, 52–96-BOL, and 57–96-BOL", "experiment": "Antibiotic screen with additional antibiotics in the presence and absence of CB-18", "type": "cell-based, Mycobacterium tuberculosis", "details": "ceftazidime alone (absence of PANTA) at 16 μg/ml final", "method": "The experimental design of FIG. 16 was also used to examine the breadth of the CB-18 effect with respect to other, non-β-lactam antibiotics. In these experiments antibiotics (Sigma, St. Louis, Mo.) were manufactured as stock solutions in water or buffer and then diluted with reconstitution fluid and added to the culture bottles prior to inoculation. Nystatin (100 μg/ml final), polymixin B (300 units final), erthromycin (4 μg/ml final), oleandomycin (2 μg/ml final), penicillin G (8 μg/ml final), nalidixic acid (30 μg/ml final), lincomycin (2 μg/ml final), ceftriaxone (32 μg/ml final), and ceftazidime (16 μg/ml final) (ceftazidime was manufactured in 10% sodium bicarbonate) were tested on ATCC 27294, 571/573-BAL, 061-TBR, 52–96-BOL, and 57–96-BOL. All experiments used R.F. and P-caz as controls, and all bottles wherein CB-18 was added used a final concentration of 17 μg/ml. FIG. 28 presents the results of the 571/573-BAL isolate with erythromycin and ceftriaxone. FIG. 29 presents the results of the 061-TBR isolate with polymyxin B, oleandomycin, lincomycin, naldixic acid, penicillin G, and ceftriaxone. FIG. 30 presents the results of the 57–96-BOL isolate with naldixic acid, penicillin G, ceftazidime and ceftriaxone."}}}
{"smiles": "CC(C)(O/N=C(\\C(=O)N[C@@H]1C(=O)N2C(C(=O)[O-])=C(C[n+]3ccccc3)CS[C@H]12)c1csc(N)n1)C(=O)O", "note": "[ceftazidime]", "values": [{"measurement": "gram negative bacteria sensitive to ceftazidime", "setting": "gram negative bacteria", "result": "40 of the 48"}, {"measurement": "effect on isolates relative to other antibiotics tested", "setting": "[1]", "result": "one of the least innocuous compounds"}]}
